# Results taken from patent EP1660884B1, “CROWN ETHER DERIVATIVES” (Life Technologies Corporation, priority 2003, dated 2005).
# Entries after “also recorded” stand apart in the source; their conditions may differ.
# System: Jurkat cells
# Test: Calibration of sodium indicator fluorescence response in cells (flow cytometry)
# Type: cell-based
# Details: Jurkat cells loaded with 5 µM for 30 minutes at 37 °C, 2 µM gramicidin, extracellular Na+ 0-145 mM, excitation at 488 nm
# Experimental: Example 3: Calibration of sodium indicator fluorescence response in cells.
# Jurkat cells were loaded with a 5 µM solution of either Compound 25 (a compound according to Formula (I) as shown below), or commercially available SODIUM GREEN tetraacetate indicator (Molecular Probes, Inc., Eugene, OR) and 10 µM for Compound 87 (Example 9) for 30 minutes at 37 °C. The use of PLURONIC dispersing agent helped dissolve the selected indicator. Intracellular sodium concentrations were then established by varying the sodium concentration of the extracellular buffer in the presence of 2 µM gramicidin (a sodium-pore forming antibiotic). The extracellular buffer was set at 0 mM, 10 mM, 20 mM, 50 mM, 100 mM, and 145 mM, respectively. Intracellular fluorescence response of the selected indicators was measured using a FACSCAN flow cytometer and associated software, with fluorescence excitation at 488 nm.
smiles,measurement,setting,value
CC(=O)OCOC(=O)CN1CCOCCN(CC(=O)OCOC(C)=O)c2ccc(-c3c4cc(F)c(=O)cc-4oc4cc(OCOC(C)=O)c(F)cc34)cc2OCCOc2cc(C)ccc21 [Compound 25],intracellular fluorescence intensity as intracellular Na^+ concentration was increased,,consistent increase in fluorescence intensity
same,intracellular fluorescence intensity compared with SODIUM GREEN indicator,Figure 3,substantially brighter intracellular fluorescence intensity than the SODIUM GREEN indicator; also recorded: stronger fluorescence intensity than SODIUM GREEN sodium indicator
